Measured values from patent publication US20080312241A1, “Cicletanine and PKC inhibitors in the treatment of pulmonary and cardiac disorders” (Gilead Sciences, Inc., priority 2007, published 2008).

What was measured:
[1] = system: patient with idiopathic pulmonary arterial hypertension; assay: Human case (Example 1): oral once daily cicletanine in a patient with idiopathic pulmonary arterial hypertension (Class I); format: in vivo; details: for 6-minute walking distance: less than 30 meters immediately prior to initiation; for levels of N-terminal pro-B-type natriuretic peptide: 4409 immediately prior to therapy
Description: A successful clinical trial of one of the embodiments comprised use of racemic cicletanine with the dosage initiated at 50 mg daily and titrated as tolerated to 150 mg daily in a patient with Class I Pulmonary Hypertension.
A patient with idiopathic pulmonary arterial hypertension, despite having been for some time on high doses of all three classes of approved pulmonary hypertension drugs (endothelin receptor antagonist, prostacyclin, and PDE5 inhibitor), was in heart failure and deteriorating rapidly. The patient had finally been stabilized in the intensive care unit with continuously inhaled nitric oxide. Cicletanine therapy was inititiated—oral once daily, titrating from 50 mg to 150 mg/day over three days—day 1 at 50 mg, day 2 at 100 mg, day 3 and thereafter at 150 mg. Within three days from initiation of cicletanine therapy, the patient was weaned off nitric oxide and released from the intensive care unit; they were home within 5 days of initiation of cicletanine treatment. The patient has been on the cicletanine therapy for four and a half months.
The patient has manifested a significant improvement in 6-minute walking distance, which was less than 30 meters immediately prior to cicletanine initiation, and was over 200 meters after one month of cicletanine therapy and was over 400 meters from the second month of cicletanine therapy onward.
Immediately prior to cicletanine therapy the marker was at 4409; within a few days of cicletanine therapy biomarker levels had fallen to less than 2000, and have stayed near 2000 for approximately four months.
The patient, formerly bedridden, is now able to perform housework and take regular exercise.

[2] = system: WHO class II pulmonary hypertension patients; assay: Oral cicletanine 50 mg daily in WHO class II pulmonary hypertension patients; format: in vivo, human
Description: When dosed orally once daily at 50 mg daily, improvements in functional status as measured by improved 12 minute walking distance were observed.
Another embodiment comprises the use of 50 mg oral daily doses of racemic cicletanine for treatment of Class II Pulmonary Hypertension, resulting in improved walking distance values.

[3] = system: Class III Pulmonary Hypertension; assay: Oral cicletanine 50 mg daily in Class III pulmonary hypertension (associated with left-sided heart failure); format: in vivo, human
Description: Yet another embodiment comprises the use of 50 mg oral daily doses of racemic cicletanine for treatment of Class III Pulmonary Hypertension, resulting in improved NYHA functional status.

[4] = system: human subject with heart failure; assay: Oral cicletanine 150 mg daily in a human subject with heart failure; format: in vivo; details: oral 150 mg daily
Description: Natriuretic peptide level, a marker of heart failure is improved by oral administration of 150 mg of Cicletanine daily to a human subject with heart failure.

[5] = Tolerance and systemic blood pressure effects of cicletanine in patients; format: in vivo, human
Description: We have unexpectedly found good tolerance of Cicletanine in some patient populations at doses up to 400 mg. […] This is particularly effective by use of means to reduce or modulate the magnitude of the kaliuretic, natriuretic and diuretic effects of Cicletanine. As part of aspects of the present invention, and as described below, we have also invented several means of accomplishing this objective.
In accordance of the other embodiments of the present invention, an oral therapeutic formulation is disclosed wherein sufficient cicletanine is contained to improve pulmonary hemodynamics without excessive lowering of systemic blood pressure. Excessive reduction of systemic blood pressure has been a limiting side effect in many agents potentially useful for treatment of pulmonary hypertension. […] Use of appropriate delivery or other mechanisms to optimize blood levels of individual isomers will allow even higher dosing without adverse impacts on systemic blood pressures.
In accordance with some embodiments of the present invention, an oral formulation is disclosed, comprising a therapeutically effective amount of cicletanine alone or in combination with a second agent such that the overall formulation improves pulmonary hemodynamics without inappropriately lowering systemic blood pressure. […]

[6] = system: nitric oxide in vascular tissue; assay: Nitric oxide levels in vascular tissue
[7] = 50 mg daily titrated to 150 mg daily, patient with Class I Pulmonary Hypertension

Structure (SMILES): Cc1ncc2c(c1O)COC2c1ccc(Cl)cc1 (racemic) [cicletanine]
- 6-minute walking distance ([1]; after one month of cicletanine therapy (150 mg/day oral)): over 200 meters
- levels of N-terminal pro-B-type natriuretic peptide ([1]; for approximately four months of therapy): ~2000
- quality of life ([1]; formerly bedridden, now able to perform housework and take regular exercise): improved significantly
- 6-minute walking distance ([1]; from the second month of cicletanine therapy onward): over 400 meters
- time from initiation of treatment until home ([1]; titrating from 50 mg to 150 mg/day): ≤ 5 days
- time from initiation of therapy until weaned off nitric oxide and released from the intensive care unit ([1]; titrating from 50 mg to 150 mg/day over three days): three
- levels of N-terminal pro-B-type natriuretic peptide ([1]; within a few days of cicletanine therapy): less than 2000
- 12 minute walking distance (functional status) ([2]; oral once daily 50 mg, WHO class II patients): improved
- hemodynamic and clinical change from baseline ([3]; pulmonary hypertension associated with left-sided heart failure): favorable, long-term hemodynamic and clinical improvements
- Natriuretic peptide level (marker of heart failure) [4]: improved
- systemic blood pressure ([5]; human, in vivo): tends not to lower
- doses with good tolerance ([5]; some patient populations): up to 400 mg
- tachyphylaxis to its own nitric oxide effects [6]: avoids tachyphylaxis
- levels of nitric oxide in vascular tissue ([6]; persistent across concentrations corresponding to human doses from 1 mg daily to several thousand milligrams daily): increased levels

Structure (SMILES): Cc1ncc2c(c1O)COC2c1ccc(Cl)cc1 (single isomer, unassigned; (-)) [(−) cicletanine]
- nitric oxide enhancing effect, (−) versus (+) cicletanine ([6]; compared with (+) cicletanine): more prominent

Structure (SMILES): Cc1ncc2c(c1O)COC2c1ccc(Cl)cc1 (racemic) [racemic cicletanine]
- increase in walking distance [1, 7]: more than 12 fold
- natriuretic peptide serum levels [1, 7]: substantial reductions
- walking distance values ([2]; 50 mg oral daily doses, Class II Pulmonary Hypertension): improved
- NYHA functional status ([3]; 50 mg oral daily doses, Class III Pulmonary Hypertension): improved
